Results: PubChem BioAssay (NCI)
Several values for one entry are separate records, joined by “and”; a condition that tells them apart may be missing. Equal values may be shown once.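 These data come from cells grown in 96-well plates and exposed to compound for 48 hours at five concentrations. Abbreviation: GI50, concentration required for 50% inhibition of growth. TGI: total growth inhibition.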 Where a SMILES comes first, the peptide text is derived from it. [ ]: non-standard residue; d: D form. Orn = NCCC[CH](N)C(=O)O

Columns and labels:
Experiment in all cases: NCI anticancer screen, dose series, 48 h
OVCAR-3 ovarian = test system: OVCAR-3 ovarian
CCRF-CEM leukemia = test system: CCRF-CEM leukemia
SK-OV-3 ovarian = test system: SK-OV-3 ovarian
ACHN renal = test system: ACHN renal
HT29 colon = test system: HT29 colon
CAKI-1 renal = test system: CAKI-1 renal
NCI-H460 lung = test system: NCI-H460 lung
T-47D breast = test system: T-47D breast

Row | SMILES | GI50 (OVCAR-3 ovarian) | TGI (OVCAR-3 ovarian) | GI50 (CCRF-CEM leukemia) | TGI (CCRF-CEM leukemia) | GI50 (SK-OV-3 ovarian) | TGI (SK-OV-3 ovarian) | GI50 (ACHN renal) | TGI (ACHN renal) | GI50 (HT29 colon) | TGI (HT29 colon) | GI50 (CAKI-1 renal) | TGI (CAKI-1 renal) | GI50 (NCI-H460 lung) | TGI (NCI-H460 lung) | GI50 (T-47D breast) | TGI (T-47D breast)
1 | CCNCCNc1cc(C2CCCC2)c(C#N)c2nc3ccccc3n12 | 1.7 µM | 3.18 µM | 2.46 µM | 7.75 µM | 3.26 µM | 12.5 µM | 1.91 µM | 4 µM | 2.37 µM | 5.98 µM | 3.59 µM | 14.5 µM | 2.75 µM | 7.19 µM | 2.58 µM | 7.14 µM
2 | CC(C)CC1NC(=O)C(CCCN)NC(=O)C(C(C)C)NC(=O)C2CCCN2C(=O)C(Cc2ccccc2)NC(=O)C(CC(C)C)NC(=O)C(CCCN)NC(=O)C(C(C)C)NC(=O)C2CCCN2C(=O)C(Cc2ccccc2)NC1=O (stereo unspecified) (cyclo(FPV[Orn]LFPV[Orn]L); configuration not given here) | 0.0103 µM and 0.0322 µM | 0.211 µM and 1.43 µM | 0.00814 µM | 0.32 µM | 0.0108 µM | 0.505 µM and 1.39 µM | 0.0961 µM and 0.0816 µM | 3.25 µM and 2.21 µM | 0.0133 µM and 0.0363 µM | 0.266 µM and 1.22 µM | 0.564 µM and 1.02 µM | 2.14 µM and 7.23 µM | 0.0111 µM and 0.0287 µM | 0.0385 µM and 0.107 µM | < 0.00325 µM | 0.433 µM and 1.24 µM
3 | COc1ccc(-c2oncc2-c2cc(OC)c3c(c2)OCO3)cc1 | 3.15 µM | 39 µM | 2.2 µM | > 43.6 µM | 3.76 µM | > 40.4 µM | 4.81 µM | > 100 µM | 1.69 µM | 13.7 µM | 2.16 µM | 31.2 µM | 3.58 µM | > 100 µM | 4.29 µM | > 100 µM
4 | O=C(Nc1cccc2ccccc12)c1cc2ccccc2cc1O | 2.16 µM | 6.85 µM | 2.91 µM | 12.1 µM | 2.5 µM | 7.55 µM | 2.44 µM | 7.89 µM | 3.55 µM | 12.4 µM | 1.75 µM | 4.52 µM | 2.06 µM | 5.87 µM | 2.8 µM | 18.7 µM
5 | Cc1cccc2c(=O)c3c(sc12)c(NCCN)nc1ccccc13 | 0.888 µM | 1.79 µM | 0.878 µM | 1.83 µM | 3.17 µM | 9.9 µM | 0.762 µM | 1.43 µM | 0.819 µM | 1.61 µM | 0.851 µM | 2.85 µM | 0.768 µM | 1.54 µM | 0.685 µM | 1.6 µM
6 | COc1ccc2c(c1)N(CCC1CCCCN1C)c1ccccc1S2 (stereo unspecified) |  | 31.4 µM |  | 28.9 µM |  | 31 µM |  | 28.1 µM |  | 18.9 µM |  | 21.5 µM |  | 21.5 µM |  | 26.3 µM
7 | COc1ccc2c(c1)c(=O)oc1cc(OC/C(=N\O)c3ccc(F)cc3)ccc12 | 20.4 µM | 47.4 µM | 7.07 µM | > 100 µM | 30.4 µM | > 100 µM | 21 µM | 55.4 µM | 15.5 µM | 36.6 µM | 19.9 µM | 47.8 µM | 18.6 µM | 53.3 µM | 28.4 µM | > 100 µM
8 | O=C(Nc1cc(Cl)cc(Cl)c1)c1ccc(NC2=C(Cl)C(=O)N(Cc3ccccc3)C2=O)cc1 | 1.99 µM | 5.37 µM | 3.17 µM | 12.1 µM | 22 µM | 73.7 µM | 1.82 µM | 7.77 µM | 16.8 µM | > 100 µM | 0.799 µM | 2.98 µM | 1.8 µM | 4.51 µM | 30.9 µM | > 100 µM
9 | O=C(CN/C=C\C(=O)c1cc(Cl)ccc1Cl)c1ccccc1 | 26 µM | 85.7 µM | 18.5 µM | 36.7 µM | 47.1 µM | > 100 µM | > 100 µM | > 100 µM | 31.6 µM | > 100 µM | 26.6 µM | 66.2 µM | 32.3 µM | > 100 µM | 33.4 µM | > 100 µM
10 | CCOCC[P+](c1ccccc1)(c1ccccc1)c1ccccc1 | 19.3 µM | > 100 µM | 23 µM | > 100 µM | 20.1 µM | 79.8 µM | 35.8 µM | > 100 µM | 16.2 µM | 96.3 µM | 44.1 µM | > 100 µM | 25.7 µM | > 100 µM | 4.21 µM | > 100 µM
11 | COc1ccc(/C=C2\CCCC3=C2N=C2SC=NN2C3c2ccc(OC)c(OC)c2)cc1OC (stereo unspecified) | 4.62 µM | 75.4 µM | 6.16 µM | > 100 µM | 56.4 µM | > 100 µM | 7.71 µM | > 100 µM | 19.9 µM | > 100 µM | 7.43 µM | > 100 µM | 22.4 µM | > 100 µM | 5.21 µM | > 100 µM
12 | Cc1cc(Cl)ccc1Nc1nc(C(F)(F)F)ccc1C(=O)N/N=C/c1ccc(F)cc1 | 0.491 µM | 2.24 µM | 0.528 µM | 5.9 µM | 1.34 µM | 6.58 µM | 2.48 µM | 10.8 µM | 2.83 µM | 10.3 µM | 1.82 µM | 6.55 µM | 1.95 µM | 6.04 µM | 1.6 µM | 7.13 µM
13 | C(#Cc1ccccc1C#Cc1ccccn1)c1ccc(OCCCCCCOc2ccc(C#Cc3ccccc3C#Cc3ccccn3)cc2)cc1 | 2.31 µM | 9.16 µM | 0.0276 µM | 0.151 µM | 7.87 µM | 20.1 µM | 1.2 µM | 7.95 µM | 8.16 µM | 14.9 µM | 5.05 µM | 12 µM | 1.62 µM | 6.65 µM | 1.52 µM | 14.1 µM
14 | COc1ccc(C2SC(C)C(=O)N2NC(=O)C(O)c2ccccc2)cc1 (stereo unspecified) | > 100 µM | > 100 µM | > 100 µM | > 100 µM | 63.1 µM | > 100 µM | > 100 µM | > 100 µM | > 100 µM | > 100 µM | > 100 µM | > 100 µM | > 100 µM | > 100 µM | > 100 µM | > 100 µM
15 | COc1cc([C@@H]2c3cc4c(cc3[C@H](O)[C@H]3COC(=O)[C@@H]23)OCO4)cc(OC)c1OC | 0.303 µM and 0.159 µM | 1.53 µM and 0.371 µM | 0.374 µM and 0.302 µM | > 100 µM | 0.529 µM and 0.301 µM |  | 0.568 µM and 1.41 µM | > 100 µM | 0.36 µM and 0.104 µM | > 3.94 µM and 1.06 µM | 0.448 µM and 0.258 µM | > 35.8 µM | 0.371 µM and 0.138 µM | > 10 µM and 3.07 µM | 0.405 µM | 4.64 µM
